Laboratory results: patent publication US20160361340A1, “TREATMENT OF CARDIAC DISEASES WITH MODULATORS OF THE HIPPO PATHWAY” (INSTITUT PASTEUR, priority 2014, published 2016)

Experiments:
Type in all cases: cell-based, rat
Details in all cases: primary cultures of cardiomyocytes
[1] = system: Amotl1; experiment: RT-qPCR control of RNA interference efficiency, Amotl1
Description: (§1) cDNAs were reverse transcribed from RNAs extracted in TRIzol from cell cultures and isolated hearts using the Quanti-Tect kit (Qiagen) and Superscript II Reverse Transcriptase (Life Technologies) respectively. Quantitative PCR was carried out on a StepOne System (Life Technologies) using Fast Start SYBR Green Master (Roche). Quantification of gene expression was calculated as R=2^ΔCt(control-target), with Gapdh used as a control. Primers were designed using the NCBI Primer-BLAST software. Primer sequences are listed in Supplementary Table 1.
(§2) Primary cultures of newborn rat cardiomyocytes, performed as previously described^34, were transfected with siRNA at 10 pM using Lipofectamine RNAiMax with silencer-siRNA at 24 h and analysed at 72 h, or 96 h (FIG. 3c). Control (Ambion 4390843), Fat4 (siRNA-1: Ambion s172170, siRNA-2: […], siRNA-3 […]), Amotl1 (siRNA-1: […], siRNA-2: […], siRNA-3: […]), Yap1 (siRNA-1: Ambion s170200, siRNA-2: […], siRNA-3: […]) siRNA were used. Efficiency of the interference was controlled by RT-qPCR. In the figures, Fat4 siRNA is Fat4-siRNA-1, Yap1 siRNA is a pool of siRNA-1 to 3 and Amotl1 siRNA is a pool of siRNA-1 to 3.

[2] = system: Fat4; experiment: RT-qPCR control of RNA interference efficiency, Fat4
Description: as §1, §2

[3] = system: Yap1; experiment: RT-qPCR control of RNA interference efficiency, Yap1
Description: as §1, §2

Substance: Amotl1 siRNA-2: siRNA against rat Amotl1, GAGUAUCUCAGAGGCCUAUTT (chemistry not given here)
- down-regulation of Amotl1 relative to Gapdh transcripts [1]: Efficient down-regulation

Substance: Amotl1 siRNA-3: siRNA against rat Amotl1, CAUCACAUGUCCCAGAAUATT (chemistry not given here)
- down-regulation of Amotl1 relative to Gapdh transcripts [1]: Efficient down-regulation

Substance: Amotl siRNA-1: siRNA against rat Amotl1, AUCUCUACCAUUUGUUGGGTT (chemistry not given here)
- down-regulation of Amotl1 relative to Gapdh transcripts [1]: Efficient down-regulation

Substance: Fat4 siRNA-2: siRNA against rat Fat4, CCUGUACCCUGAGUAUUGATT (chemistry not given here)
- down-regulation of Fat4 relative to Gapdh transcripts [2]: Efficient down-regulation

Substance: Fat4 siRNA-3: siRNA against rat Fat4, CCGUCCUUGUGUUUAACGUTT (chemistry not given here)
- down-regulation of Fat4 relative to Gapdh transcripts [2]: Efficient down-regulation

Substance: Yap1 siRNA-2: siRNA against rat Yap1, GUCAGAGAUACUUCUUAAATT (chemistry not given here)
- down-regulation of Yap1 relative to Gapdh transcripts [3]: Efficient down-regulation

Substance: Yap1 siRNA-3: siRNA against rat Yap1, GGAGAAGUUUACUACAUAATT (chemistry not given here)
- down-regulation of Yap1 relative to Gapdh transcripts [3]: Efficient down-regulation
